Laboratory results reported in patent US20250032487A1, “DISSOLUTION TEST” (JANSSEN SCIENCES IRELAND UNLIMITED COMPANY, priority 2021, published 2025).

Test: In vitro dissolution test, paddle apparatus (USP type 2), polysorbate 20 in 0.05 M sodium phosphate buffer pH 7.4
Assay type: physicochemical
Method: The dissolution of the suspensions was tested using a paddle apparatus (USP type 2, Ph. Eur, JP) with a rotation speed of 50 rpm in 900 mL 6.0% w/v polysorbate 20 in 0.05 M sodium phosphate buffer pH 7.4 at 5° C. The sample amount corresponds to 18 mg rilpivirine.
After 360 minutes the temperature was increased to 37° C. and maintained for 60 minutes to simulate an infinity time point. The samples taken after the temperature infinity time points are labelled as 420 minutes.
The quantity of dissolved drug substance was determined by a gradient ultra-high performance liquid chromatographic (UHPLC) method with UV detection at 280 nm.
The dissolution of the three rilpivirine suspensions in water was performed using Paddle Apparatus (USP type 2, Ph.Eur., JP.) at 50 rpm in 900 mL of 6.0% w/v Polysorbate 20 in 0.05 M Sodium Phosphate buffer pH 7.4, at 5.0±0.5° C. An amount of 64.98 mg (=0.06 mL×1.083 g/mL (the theoretical density of the suspension))±5% of homogeneous suspension of rilpivirine (corresponding to 18±0.9 mg of rilpivirine) was added.
The determination of the quantity of rilpivirine present in the dissolution samples is based upon a gradient ultra-high performance liquid chromatographic (UHPLC) method with UV detection at 280 nm.
The dissolution of a suspension of nanoparticulate rilpivirine having a Dv50 of ˜200 nm was tested using the method of Example 1 but with different temperatures of the dissolution medium (37° C., 25° C., 15° C., and 5° C.).
The dissolution of a suspension of nanoparticulate rilpivirine having a Dv50 of 218 nm was tested using the method of Example 1 but with different concentrations of the surfactant (1-6% w/v polysorbate 20).

[1] = Example 4, nanoparticulate suspension Dv50 ~200 nm, 5° C., 6.0% w/v polysorbate 20, pH 7.4
[2] = Example 5, nanoparticulate suspension Dv50 218 nm, 6% polysorbate 20, 5° C., pH 7.4

% dissolved after 6 hours [1]: Over 85% | % dissolved at 5 minutes [1]: less than 30% | time until fully dissolved (Example 4, nanoparticulate suspension Dv50 ~200 nm, 37° C., 6.0% w/v polysorbate 20, pH 7.4, 50 rpm, 900 mL): around 10 minutes | delta % dissolved (difference between lowest and highest % dissolved in the dissolution profile) (Example 5, 6% polysorbate 20 method, suspension Dv50 218 nm, 5° C.): approximately 80% | % dissolved after 360 minutes [2]: more than 85% | initial release, % dissolved [2]: below 20%
Compound: Cc1cc(/C=C/C#N)cc(C)c1Nc1ccnc(Nc2ccc(C#N)cc2)n1 [rilpivirine, 4-[[4-[[4-[(1E)-2-cyanoethenyl]-2,6-dimethylphenyl]amino]-2-pyrimidinyl]amino]benzonitrile]
